Source: ChEMBL document CHEMBL2406931, “The inhibitory effect of a synthetic compound, (Z)-5-(2,4-dihydroxybenzylidene) thiazolidine-2,4-dione (MHY498), on nitric oxide-induced melanogenesis” (2013)
Calls of active or inactive are those of the source. No cut-off for these calls is given here.

Experiments:
[1] = test system: B16-F10; experiment: Antimelanogenic activity in mouse B16F10 cells assessed as reduction of SNP-induced melanin level at 16 uM incubated for 1 hr prior to SNP challenge measured after 48 hrs (reference value: 282.59 +/- 47.06%); format: functional
[2] = molecular target: T1, Tyrosinase (Mus musculus) (UniProt P11344); experiment: Inhibition of tyrosinase in mouse B16F10 cells at 30 uM incubated for 1 hr prior to SNP challenge measured after 48 hrs (reference value: 198.83 +/- 11.46%); format: cell-based; conditions: B16-F10
T1 sequence (whole entry): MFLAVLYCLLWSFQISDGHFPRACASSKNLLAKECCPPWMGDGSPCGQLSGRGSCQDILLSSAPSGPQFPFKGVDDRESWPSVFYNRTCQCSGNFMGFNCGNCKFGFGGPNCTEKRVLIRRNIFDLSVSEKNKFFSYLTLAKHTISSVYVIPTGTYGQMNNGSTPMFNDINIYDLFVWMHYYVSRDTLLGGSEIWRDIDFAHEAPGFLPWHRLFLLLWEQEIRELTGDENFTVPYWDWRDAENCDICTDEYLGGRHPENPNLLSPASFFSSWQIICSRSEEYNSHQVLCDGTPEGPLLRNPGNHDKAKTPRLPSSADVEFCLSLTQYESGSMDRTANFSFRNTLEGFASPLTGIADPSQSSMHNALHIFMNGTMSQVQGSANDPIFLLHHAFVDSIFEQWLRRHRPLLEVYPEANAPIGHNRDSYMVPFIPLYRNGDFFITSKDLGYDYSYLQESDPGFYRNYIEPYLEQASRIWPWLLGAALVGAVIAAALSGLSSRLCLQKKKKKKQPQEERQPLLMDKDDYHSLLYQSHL

[3] = test system: B16-F10; experiment: Antimelanogenic activity in mouse B16F10 cells assessed as reduction in SNP-induced phosphorylated CREB level at 16 uM by Western blotting analysis; format: functional, cell-based
[4] = test system: B16-F10; experiment: Inhibition of SNP-induced NO production in mouse B16F10 cells assessed as decrease of intracellular cGMP level at 16 uM incubated for 1 hr prior to SNP challenge measured after 30 mins by EIA relative to control; format: functional; conditions: values are per cent of control
[5] = test system: B16-F10; experiment: Inhibition of SNP-induced NO production in mouse B16F10 cells at 16 uM incubated 1 hr prior to SNP challenge measured after 48 hrs by Griess assay (reference value: 237.84 +/- 4.12%); values are per cent of control
[6] = test system: B16-F10; experiment: Antimelanogenic activity in mouse B16F10 cells assessed as reduction of SNP-induced melanin level incubated for 1 hr prior to SNP challenge measured after 48 hrs; format: functional, cell-based
[7] = test system: B16-F10; experiment: Antimelanogenic activity in mouse B16F10 cells assessed as reduction of SNP-induced melanin level at 4 uM incubated for 1 hr prior to SNP challenge measured after 48 hrs (reference value: 282.59 +/- 47.06%); format: functional
[8] = test system: B16-F10; experiment: Antimelanogenic activity in mouse B16F10 cells assessed as reduction of SNP-induced melanin level at 0.5 uM incubated for 1 hr prior to SNP challenge measured after 48 hrs (reference value: 282.59 +/- 47.06%); format: functional
[9] = molecular target: T1, Tyrosinase (Mus musculus); experiment: Inhibition of tyrosinase in SNP-stimulated mouse B16F10 cells at 16 uM incubated for 1 hr prior to SNP challenge measured after 48 hrs (reference value: 198.83 +/- 11.46%); format: cell-based; conditions: B16-F10, values are per cent of control
[10] = molecular target: T1, Tyrosinase (Mus musculus); experiment: Inhibition of tyrosinase in SNP-stimulated mouse B16F10 cells at 4 uM incubated for 1 hr prior to SNP challenge measured after 48 hrs (reference value: 198.83 +/- 11.46%); format: cell-based; conditions: B16-F10, values are per cent of control
[11] = molecular target: T1, Tyrosinase (Mus musculus); experiment: Inhibition of tyrosinase in SNP-stimulated mouse B16F10 cells at 0.5 uM incubated for 1 hr prior to SNP challenge measured after 48 hrs (reference value: 198.83 +/- 11.46%); format: cell-based; conditions: B16-F10, values are per cent of control
[12] = test system: B16-F10; experiment: Antimelanogenic activity in mouse B16F10 cells assessed as reduction in SNP-induced phosphorylated CREB level at 0.5 to 4 uM by Western blotting analysis; format: functional, cell-based
[13] = test system: B16-F10; experiment: Antimelanogenic activity in mouse B16F10 cells assessed as reduction in SNP-induced nuclear MITF level by Western blotting analysis; format: functional, cell-based
[14] = test system: B16-F10; experiment: Antimelanogenic activity in mouse B16F10 cells assessed as reduction in SNP-induced tyrosinase protein level by Western blotting analysis; format: functional, cell-based
[15] = test system: B16-F10; experiment: Inhibition of SNP-induced NO production in mouse B16F10 cells assessed as decrease of intracellular cGMP level incubated for 1 hr prior to SNP challenge measured after 30 mins by EIA relative to control; format: functional, cell-based
[16] = test system: B16-F10; experiment: Inhibition of SNP-induced NO production in mouse B16F10 cells assessed as decrease of intracellular cGMP level at 4 uM incubated for 1 hr prior to SNP challenge measured after 30 mins by EIA relative to control; format: functional; conditions: values are per cent of control
[17] = test system: B16-F10; experiment: Inhibition of SNP-induced NO production in mouse B16F10 cells assessed as decrease of intracellular cGMP level at 0.5 uM incubated for 1 hr prior to SNP challenge measured after 30 mins by EIA relative to control; format: functional; conditions: values are per cent of control
[18] = test system: B16-F10; experiment: Inhibition of SNP-induced NO production in mouse B16F10 cells incubated 1 hr prior to SNP challenge measured after 48 hrs by Griess assay; format: functional, cell-based
[19] = test system: B16-F10; experiment: Inhibition of SNP-induced NO production in mouse B16F10 cells at 4 uM incubated 1 hr prior to SNP challenge measured after 48 hrs by Griess assay (reference value: 237.84 +/- 4.12%); values are per cent of control
[20] = test system: B16-F10; experiment: Inhibition of SNP-induced NO production in mouse B16F10 cells at 0.5 uM incubated 1 hr prior to SNP challenge measured after 48 hrs by Griess assay (reference value: 237.84 +/- 4.12%); values are per cent of control

residual activity [9] | residual activity [10] | residual activity [11] | Compound | level, % of control at 16 µM [1] | inhibition [2] | inhibition [3] | response, % of control at 16 µM [4] | level, % of control at 16 µM [5] | inhibition [6] | level, % of control at 4 µM [7] | level, % of control at 0.5 µM [8] | inhibition [12] | inhibition [13] | inhibition [14] | inhibition [15] | response, % of control at 4 µM [16] | response, % of control at 0.5 µM [17] | inhibition [18] | level, % of control at 4 µM [19] | level, % of control at 0.5 µM [20]
– | – | – | CC1(C)N([O])C(c2ccc(C(=O)O)cc2)=[N+]([O-])C1(C)C | 173% | 34.3% | Active | 153% | 206% | – | – | – | – | – | – | – | – | – | – | – | –
31.8% | 60.5% | 84.8% | O=C1NC(=O)/C(=C/c2ccc(O)cc2O)S1 | 100% | – | Active | 83.1% | 172% | Dose-dependent effect | 114% | 151% | inactive | Dose-dependent effect | Dose-dependent effect | Dose-dependent effect | 154% | 177% | Dose-dependent effect | 183% | 200%
